According to article PMC12113707, “Microwave Assisted Synthesis of Antioxidant Dihydro-Pyrazole Hybrids as Possible Lipoxygenase Inhibitors” (Molecules, 2025):

Assays:
[1] = Inhibition of AAPH-induced linoleic acid peroxidation; settings: 37 °C, 234 nm
Description: The ability of the compounds to inhibit AAPH-induced peroxidation of linoleic acid is another assay to investigate the antioxidant properties of the compounds. Azo compounds such as 2,2′-azobis dihydrochloride (2-amidinopropane) (AAPH) are capable of generating free radicals through spontaneous decomposition at 37 °C. The R- radicals react immediately with air-oxygen to produce peroxy radicals. AAPH was therefore used as the radical initiator and sodium linoleate as substrate subjected to peroxidation. Measurements were carried out at 234 nm using a UV/V is spectrophotometer. Dichalcone 1i substituted with two phenyl groups presents the lowest lipophilicity. […] Therefore, hydrophilic substituents offer an increase in activity.
The interaction of free radicals with cell membrane lipids induces free radical chain reactions, a process called lipid peroxidation. 930 μL of a phosphate buffer solution (0.05 M, pH = 7.4), 10 μL of the sodium linolate solution (16 mM in a buffer solution of Tris-HCl pH = 9) and 10 μL of the tested compounds (stock solutions 100 μΜ) were mixed and the oxidative procedure started after the addition of 50 μL AAPH at 37 °C under air conditions. The conjugated diene’s absorbance was measured at 234 nm at a thermostable spectrophotometer (37 °C) according to previous publication.

[2] = Experimental lipophilicity RM by reverse phase thin layer chromatography (RP-TLC); format: physicochemical; settings: methanol-water mobile phase
Description: Lipophilicity is a main physicochemical parameter for bioactive molecules, linking solubility, ligand-target binding interactions, membrane permeability absorption, distribution, bioavailability, metabolism, elimination and toxicological effects (ADMET), playing an important role in biological activity. The experimental values of lipophilicity RM were determined by reverse phase thin layer chromatography. For the experimental determination of lipophilicity the hydrophilic-lipid phase system is a mixture of methanol- water (90/10%). The theoretical lipophilicity values are determined by the Bioloom program (http://biobyte.com/bb/prod/bioloom.html, accessed on 8 April 2024) (Table 1). According to the calculated clog P values, the most lipophilic compounds are 3c, 3d and 3f while the less lipophilic ones are compounds 5a and 5b.
Melting points were determined on a MEL-Temp II (Lab. Devices, Holliston, MA, USA). In vitro tests were carried out using a UV-Vis spectra and recorded on a Perkin-Elmer 554 double-beam spectrophotometer (Perkin-Elmer Corporation Ltd., Lane Beaconsfield, Bucks, UK). Infrared spectra (KBr pellets) were recorded with Perkin-Elmer 597 spectrophotometer (Perkin-Elmer Corporation Ltd., Lane Beaconsfield, Bucks, UK). The ^1H […] Magnetic Resonance (^1H-NMR) spectra were acquired on an Agilent 500/54 (DD2) at 500 MHz in CDCl3 using tetramethylsilane as an internal standard. Agilent 500/54 (DD2) ^13C NMR spectra were acquired at 125 MHz in CDCl3 solutions with tetramethylsilane serving as an internal reference. Coupling constants J are expressed in Hz, and chemical shifts are reported in ppm. Thermo Fisher Scientific Inc., Waltham, MA, USA, used MeOH as the solvent to calculate mass spectra using an LC-PDA-MS Thermo Finnigan system (LC Pump Plus, Autosampler, Surveyor PDA Plus Detector) interfaced with an ESI MSQ Plus (Thermo Finnigan). Thin-layer chromatography using 5554 F254 Silica gel/TLC cards (Merck and Fluka Chemie GmbH Buchs, Steinheim, Switzerland) was used to monitor the reaction progress. Silica gel 60 F254 plates with a diameter of 2 mm were utilized for preparative thin layer chromatography (prep TLC) by Merck KgaA (ICH078057). Merck (20 × 20 cm) plates were used for the experimental assessment of the lipophilicity using reverse phase thin-layer chromatography (RP-TLC) TLC-Silica gel 60 F254 DC Kieselgel.
In this experiment, TLC silica gel 60 F254 1.05715.0001 commercial glass plates from Merck were used. The plates were first immersed in a 5% v/v solution of liquid paraffin in petroleum ether and left for 90 s to become completely impregnated with the stable lipophilic phase. They were then activated by standing for 30 min in an oven at 40 °C and kept there until the time of use. A 70% v/v MeOH/H2O mixture was used as the mobile phase. The mobile phase was saturated with a few drops of liquid paraffin before being used. The spots of the compounds were placed on the plate at a distance of 2 cm from the edges of the plate and also from each other. The development of the spots on the plates was carried out in closed chromatography chambers where the atmosphere is saturated with the mobile phase at room temperature. At the end of development, the solvent-formed front was marked and the plates are dried at 80 °C for about 20–30 min. The appearance of the spots was made under an ultraviolet light lamp. The Rf values were the average of 5–6 measurements for each compound and assuming that the compounds will have been rotated to different positions on the plates. The RM values were calculated from the corresponding Rf values according to the equation [67].RM = log [(1/Rf) − 1](1)

[3] = Interaction with the stable free radical DPPH (reducing activity); settings: 517 nm
Description: In general, the compounds present moderate to good antioxidant activity. It seems that the dibenzylacetones present satisfactory antioxidant activity compared to the hybrids at 60 min (1b, 1d and 1f).
The tested compounds (0.1 mM final concentration) dissolved in DMSO were incubated with a solution of DPPH in absolute ethanol in absence of light. The absorbance at 20 and 60 min at 517 nm was recorded at room temperature. NDGA was used as the reference compound.

[4] = target: T1, soybean lipoxygenase (SLOX-1) (Glycine max, UniProt P08170); assay: Inhibition of soybean lipoxygenase in vitro; format: biochemical; settings: pH 9, sodium linoleate substrate; for inhibition at 100 µM: read-out: LOX% Inhibition, 100 μM (±SD); for IC50: read-out: LOX IC50 (μM) (±SD)
T1 construct: 200 μL of plant-derived lipoxygenase solution (1:9 × 10^−4 w/v, in saline); purchased Sigma Chemical, Co; host or cells: soybean (plant-derived)
T1 sequence (P08170 1-839): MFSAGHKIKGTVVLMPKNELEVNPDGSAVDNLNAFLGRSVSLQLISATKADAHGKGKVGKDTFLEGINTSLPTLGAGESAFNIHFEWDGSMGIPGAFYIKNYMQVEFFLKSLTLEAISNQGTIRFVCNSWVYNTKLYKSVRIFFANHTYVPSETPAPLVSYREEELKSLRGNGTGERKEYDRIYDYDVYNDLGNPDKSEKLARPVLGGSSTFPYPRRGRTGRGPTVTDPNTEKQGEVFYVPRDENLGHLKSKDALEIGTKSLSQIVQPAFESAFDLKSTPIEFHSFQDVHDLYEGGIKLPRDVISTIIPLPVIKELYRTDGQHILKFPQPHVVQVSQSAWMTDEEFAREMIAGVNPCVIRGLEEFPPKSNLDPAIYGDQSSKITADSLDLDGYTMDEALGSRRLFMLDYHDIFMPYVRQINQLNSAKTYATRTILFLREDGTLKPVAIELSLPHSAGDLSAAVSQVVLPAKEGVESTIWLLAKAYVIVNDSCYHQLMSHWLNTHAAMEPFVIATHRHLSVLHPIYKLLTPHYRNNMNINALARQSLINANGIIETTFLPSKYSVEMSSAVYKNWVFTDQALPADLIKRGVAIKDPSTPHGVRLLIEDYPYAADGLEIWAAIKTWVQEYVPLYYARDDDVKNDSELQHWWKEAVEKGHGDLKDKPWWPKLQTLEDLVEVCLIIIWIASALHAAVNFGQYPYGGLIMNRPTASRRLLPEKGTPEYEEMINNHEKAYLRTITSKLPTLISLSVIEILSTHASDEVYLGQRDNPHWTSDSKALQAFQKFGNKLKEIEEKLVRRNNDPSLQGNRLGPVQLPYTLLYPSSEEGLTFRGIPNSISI
Description: Soybean lipoxygenase SLOX-1 at pH 9 is used in vitro. During this assay linoleic acid sodium salt is converted to the corresponding 13-hydroperoxide. The reaction is recorded photometrically at 234 nm using the UV-based enzyme assay. […] It is known that soybean LOX inhibitory activity induced by NSAIDs is qualitatively quite similar to the inhibition observed on the rat mast cells LOX and this assay may be used as a qualitative or semi-quantitative screen for such activity.
To a quartz cell, add 790 μL of Tris-HCl pH = 9.0 buffer, 200 μL of plant-derived lipoxygenase solution (1:9 × 10^−4 w/v, in saline), 10 μL of the test compound solution and 100 μL of sodium linoleate solution (3 mM concentration). The absorbance was measured at 234 nm, where the change in absorbance due to the conversion of linoleic acid to […] was recorded. A solution of 790 μL of Tris-HCl pH = 9.0 buffer, 200 μL of a plant-derived lipoxygenase solution (1:9 × 10^−4 w/v, in saline), 10 μL of DMSO and 100 μL of sodium linoleate solution (3 mM concentration) was used as a control.

Row | RM ± SD [2] | inhibition at 100 µM [4] [%] | IC50 [4] [µM] | SMILES | AAPH% Inhibition, 100 μM (±SD) [1] [%] | RA%, 100 μM, 60 min (±SD) [3] [%] | RA%, 100 μM, 20 min (±SD) [3] [%]
1 | −0.14 ± 0.009 | 24 ± 0.6 |  | CN(C)c1ccc(/C=C/C(=O)/C=C/c2ccc(N(C)C)cc2)cc1 [Compound 1e, (1E,4E)-1,5-bis(4-dimethylaminophenyl)-1,4-pentadien-3-one] | 50 ± 0.5 | 100 ± 8.7 | 
2 | 0.50 ± 0.042 | 38 ± 0.7 |  | O=C(/C=C/c1ccc(Cl)cc1)/C=C/c1ccc(Cl)cc1 [Compound 1d, (1E,4E)-1,5-bis(4-chlorophenyl)-1,4-pentadien-3-one] | 53 ± 0.6 | 95 ± 4.8 | 86 ± 4.5
3 | 0.50 ± 0.043 |  | 80 | NC(=O)N1N=C(/C=C/c2ccc(Cl)cc2)CC1c1ccc(Cl)cc1 (stereo not shown) [Compound 5d, (E)-5-(4-chlorophenyl)-3-(4-chlorostyryl)-4,5-dihydro-1H-pyrazole-1-carboxamide] | 33 ± 0.5 | 34 ± 0.5 | 
4 | 0.78 ± 0.065 | 24 ± 1.9 |  | Fc1ccc(/C=C/C2=NN(c3ccccc3)C(c3ccc(F)cc3)C2)cc1 (stereo not shown) [Compound 2b] | 39 ± 0.3 | 15 ± 0.6 | 2 ± 0.1
5 | 0.10 ± 0.003 |  | 10 | O=C(/C=C/c1ccccc1)/C=C/c1ccccc1 [Compound 1a, (1E,4E)-1,5-diphenyl-1,4-pentadien-3-one] | 69 ± 0.3 | 10 ± 0.5 | 5 ± 0.5
6 | 0.65 ± 0.034 | 28 ± 0.6 |  | O=C(/C=C/c1ccc(Br)cc1)/C=C/c1ccc(Br)cc1 [Compound 1c, (1E,4E)-1,5-bis(4-bromophenyl)-1,4-pentadien-3-oneone] | 61 ± 0.5 | 44 ± 1.6 | 
7 | 1.47 ± 0.044 | 38 ± 2.6 |  | FC(F)(F)c1ccc(/C=C/C2=NN(c3ccc(Br)cc3)C(c3ccc(C(F)(F)F)cc3)C2)cc1 (stereo not shown) [Compound 3f] | 75 ± 2.7 | 14 ± 1.2 | 5 ± 0.4
8 | 0.94 ± 0.069 | 17 ± 1.2 |  | N#Cc1ccc(N2N=C(/C=C/c3ccc(Br)cc3)CC2c2ccc(Br)cc2)cc1 (stereo not shown) [Compound 4c, (E)-4-(5-(4-bromophenyl)-3-(4-bromostyryl)-4,5-dihydro-1H-pyrazol-1-yl)-benzonitrile] | 59 ± 0.2 |  | 2 ± 0.1
9 | 1.46 ± 0.049 |  | 30 | Brc1ccc(/C=C/C2=NN(c3ccc(Br)cc3)C(c3ccc(Br)cc3)C2)cc1 (stereo not shown) [Compound 3c] | 40 ± 1.8 | 24 ± 0.9 | 2 ± 0.1
10 | 0.95 ± 0.092 |  | 0.35 | CN(C)c1ccc(/C=C/C2=NN(c3ccccc3)C(c3ccc(N(C)C)cc3)C2)cc1 (stereo not shown) [Compound 2e] | 78 ± 0.4 | 45 ± 1 | 24 ± 0.9
